Experimental data reported in the supplement of paper PMC11451515.

System: SEM cells
Assay: cell viability relative to DMSO control; higher = less cytotoxic
Settings: 48 h
Method in brief: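 Library compounds in DMSO were pin-dosed into 1536-well plates (5 μl) holding NOMO1 or SEM (500 cells/well) or P12-Ichikawa (1000 cells/well) leukemia cells, across an 11-point threefold series of 47 μM to 0.79 nM. Each cell line had been adapted for at least four passages in each medium. CellTiter-Glo One luminescence was read after 48 h at 37°C. Viability is the per-plate percentage relative to DMSO wells, with cell-free wells as background.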

[1] = HPLM + 10% dialyzed FBS, 0.000781 µM
[2] = HPLM + 10% dialyzed FBS, 0.00234 µM
[3] = HPLM + 10% dialyzed FBS, 0.00702 µM
[4] = HPLM + 10% dialyzed FBS, 0.0211 µM
[5] = HPLM + 10% dialyzed FBS, 0.0632 µM
[6] = HPLM + 10% dialyzed FBS, 0.19 µM
[7] = HPLM + 10% dialyzed FBS, 0.569 µM
[8] = HPLM + 10% dialyzed FBS, 1.71 µM
[9] = HPLM + 10% dialyzed FBS, 5.12 µM
[10] = HPLM + 10% dialyzed FBS, 15.4 µM
[11] = HPLM + 10% dialyzed FBS, 46.1 µM
[12] = RPMI 5 mM glucose + 10% FBS, 0.000781 µM
[13] = RPMI 5 mM glucose + 10% FBS, 0.00234 µM
[14] = RPMI 5 mM glucose + 10% FBS, 0.00702 µM
[15] = RPMI 5 mM glucose + 10% FBS, 0.0211 µM
[16] = RPMI 5 mM glucose + 10% FBS, 0.0632 µM
[17] = RPMI 5 mM glucose + 10% FBS, 0.19 µM
[18] = RPMI 5 mM glucose + 10% FBS, 0.569 µM
[19] = RPMI 5 mM glucose + 10% FBS, 1.71 µM
[20] = RPMI 5 mM glucose + 10% FBS, 5.12 µM
[21] = RPMI 5 mM glucose + 10% FBS, 15.4 µM
[22] = RPMI 5 mM glucose + 10% FBS, 46.1 µM
[23] = RPMI 5 mM glucose + 10% dialyzed FBS, 0.000781 µM
[24] = RPMI 5 mM glucose + 10% dialyzed FBS, 0.00234 µM
[25] = RPMI 5 mM glucose + 10% dialyzed FBS, 0.00702 µM
[26] = RPMI 5 mM glucose + 10% dialyzed FBS, 0.0211 µM
[27] = RPMI 5 mM glucose + 10% dialyzed FBS, 0.0632 µM
[28] = RPMI 5 mM glucose + 10% dialyzed FBS, 0.19 µM
[29] = RPMI 5 mM glucose + 10% dialyzed FBS, 0.569 µM
[30] = RPMI 5 mM glucose + 10% dialyzed FBS, 1.71 µM
[31] = RPMI 5 mM glucose + 10% dialyzed FBS, 5.12 µM
[32] = RPMI 5 mM glucose + 10% dialyzed FBS, 15.4 µM
[33] = RPMI 5 mM glucose + 10% dialyzed FBS, 46.1 µM

| Structure (SMILES) | cell viability [1] [%] | cell viability [2] [%] | cell viability [3] [%] | cell viability [4] [%] | cell viability [5] [%] | cell viability [6] [%] | cell viability [7] [%] | cell viability [8] [%] | cell viability [9] [%] | cell viability [10] [%] | cell viability [11] [%] | cell viability [12] [%] | cell viability [13] [%] | cell viability [14] [%] | cell viability [15] [%] | cell viability [16] [%] | cell viability [17] [%] | cell viability [18] [%] | cell viability [19] [%] | cell viability [20] [%] | cell viability [21] [%] | cell viability [22] [%] | cell viability [23] [%] | cell viability [24] [%] | cell viability [25] [%] | cell viability [26] [%] | cell viability [27] [%] | cell viability [28] [%] | cell viability [29] [%] | cell viability [30] [%] | cell viability [31] [%] | cell viability [32] [%] | cell viability [33] [%] |
| --- | --- | --- | --- | --- | --- | --- | --- | --- | --- | --- | --- | --- | --- | --- | --- | --- | --- | --- | --- | --- | --- | --- | --- | --- | --- | --- | --- | --- | --- | --- | --- | --- | --- |
| CC1(C)CC(=O)c2c(C(F)(F)F)nn(-c3ccc(C(N)=O)c(NC4CCC(OC(=O)CN)CC4)c3)c2C1 (stereo not drawn) | 106 | 104 | 113 | 112 | 114 | 73.2 | 35.7 | 20.2 | 17 | 17.3 | 17.8 | 108 | 99.1 | 105 | 120 | 112 | 73.3 | 37.3 | 23.9 | 18.4 | 15.3 | 16.1 | 94.8 | 95.2 | 100 | 89.2 | 89.5 | 63.3 | 34.5 | 20.5 | 17.3 | 14.3 | 14.7 |
| COc1ccc(-c2c(-c3ccc(O)cc3O)n[nH]c2C)cc1 | 98.3 | 95.8 | 114 | 108 | 110 | 108 | 88.8 | 95.5 | 86 | 62.2 | 51.1 | 114 | 104 | 107 | 109 | 108 | 108 | 103 | 84.3 | 84.1 | 44 | 20.9 | 98.6 | 96.8 | 93 | 101 | 103 | 108 | 96.2 | 99.5 | 87 | 54.4 | 30.9 |
| OC1=C(C=CC=C1)C2=CC=C(C=C2)C3=CSC4=C3C(=C(/C#N)C(=O)N4)/O | 114 | 123 | 131 | 129 | 120 | 132 | 124 | 113 | 96.6 | 113 | 103 | 111 | 109 | 118 | 112 | 105 | 90.5 | 98.6 | 112 | 87.4 | 96.7 | 90.9 | 113 | 117 | 124 | 133 | 121 | 126 | 115 | 117 | 104 | 110 | 100 |
| C[C@H]1CCC/C=C/C2C[C@H](O)C[C@H]2[C@H](O)/C=C/C(=O)O1 (stereo partly drawn) | 15.7 | 31.7 | 17.9 | 5.79 | 5.21 | 5.3 | 5 | 4.73 | 2.72 | 2.09 | 2.38 | 11.4 | 54.4 | 44.6 | 9.33 | 5.67 | 6.09 | 5.62 | 4.83 | 3.32 | 3.06 | 2.16 | 4.97 | 29.4 | 23.6 | 5.2 | 4.1 | 3.92 | 3.96 | 3.5 | 2 | 1.85 | 1.45 |
| O=C(C1CCCCC1)N1CC(=O)N2CCc3ccccc3C2C1 (stereo not drawn) | 90.6 | 98.8 | 117 | 108 | 113 | 96 | 97.1 | 86.1 | 78.2 | 84.1 | 75.8 | 99.9 | 109 | 126 | 105 | 116 | 95.8 | 91.6 | 74.3 | 66.7 | 75.1 | 78.4 | 106 | 110 | 147 | 99.1 | 133 | 132 | 103 | 77.9 | 75 | 74.8 | 73.1 |
| CNC(=O)c1c(F)cccc1Nc1nc(Nc2cc3c(cc2OC)CCN3C(=O)CN(C)C)nc2[nH]ccc12 | 84.8 | 92.2 | 94.8 | 100 | 83.5 | 58.3 | 40.5 | 31.9 | 22 | 3.15 | 1.16 | 90.3 | 90.5 | 83.2 | 97.9 | 88.7 | 51 | 34.8 | 27.3 | 13.5 | 1.01 | 0.384 | 93.6 | 96.8 | 93.6 | 105 | 94.7 | 58.4 | 32.8 | 30.2 | 13.4 | 2.8 | 0.739 |
